According to US6737383B1, “Herbicidal oxadiazolidines” (priority 1999, dated 2004):

What was measured:
[1] = tested on: rape; test: Test B pre/postemergence rape; type: in vivo, Brassica napus
Method in brief: (§1)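 Test chemicals in a non-phytotoxic solvent mixture with surfactant were sprayed preemergence onto planted seeds and postemergence onto plants 2 to 18 cm tall (1- to 4-leaf stage). After twelve to sixteen days in a greenhouse, injury was visually rated against untreated controls from 0 (no effect) to 10 (complete control).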

[2] = tested on: rice; test: Test B flood test rice; type: in vivo, Oryza sativa
Method in brief: (§2)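 Each value is a visual injury score relative to controls, with 10 meaning complete control and 0 no effect. Evaluation took place twelve to sixteen days after the 2-leaf-stage plants were treated and kept in the greenhouse.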

[3] = tested on: crabgrass; test: Test B pre/postemergence crabgrass; type: in vivo, Digitaria sanguinalis
Method in brief: as §1

[4] = tested on: blackgrass; test: Test B pre/postemergence blackgrass; type: in vivo, Alopecurus myosuroides
Method in brief: as §1

[5] = tested on: bedstraw; test: Test B pre/postemergence bedstraw; type: in vivo, Galium aparine; conditions: Postemergence
Method in brief: as §1

[6] = tested on: duck salad; test: Test B flood test duck salad; type: in vivo, Heteranthera limosa
Method in brief: as §2

[7] = tested on: surinam grass; test: Test B pre/postemergence surinam grass; type: in vivo, Brachiaria decumbens
Method in brief: as §1

[8] = tested on: wheat; test: Test B pre/postemergence wheat; type: in vivo, Triticum aestivum
Method in brief: as §1

[9] = tested on: sugar beet; test: Test B pre/postemergence sugar beet; type: in vivo, Beta vulgaris
Method in brief: as §1

[10] = tested on: smallflower flatsedge; test: Test B flood test smallflower flatsedge; type: in vivo, Cyperus difformis
Method in brief: as §2

[11] = tested on: corn; test: Test B pre/postemergence corn; type: in vivo, Zea mays
Method in brief: as §1

[12] = tested on: giant foxtail; test: Test B pre/postemergence giant foxtail; type: in vivo, Setaria faberii
Method in brief: as §1

[13] = tested on: wild oat; test: Test B pre/postemergence wild oat; type: in vivo, Avena fatua
Method in brief: as §1

[14] = tested on: purple nutsedge; test: Test B pre/postemergence purple nutsedge; type: in vivo, Cyperus rotundus
Method in brief: as §1

[15] = tested on: velvetleaf; test: Test B pre/postemergence velvetleaf; type: in vivo, Abutilon theophrasti
Method in brief: as §1

[16] = tested on: bamyardgrass; test: Test B flood test barnyardgrass; type: in vivo, Echinochloa crus-galli
Method in brief: as §2

[17] = Postemergence, Rate 250 g/ha, scale 0 to 10
[18] = Postemergence, Rate 500 g/ha, scale of 0 to 10 where 0 is no effect and 10 is complete control
[19] = Preemergence, Rate 62 g/ha, scale 0 to 10 (0 no effect, 10 complete control)
[20] = Preemergence, Rate 125 g/ha, scale of 0 to 10 where 0 is no effect and 10 is complete control
[21] = Preemergence, Rate 250 g/ha, scale 0 to 10, 0 is no effect, 10 is complete control
[22] = Preemergence, Rate 500 g/ha, scale 0 to 10, 0 is no effect, 10 is complete control
[23] = Rate 62 g/ha, Postemergence, scale 0 to 10 (0 no effect, 10 complete control)
[24] = Rate 125 g/ha, Postemergence, scale 0 to 10, 0 is no effect, 10 is complete control
[25] = Postemergence block (flood test species), Rate 250 g/ha, scale 0 to 10
[26] = Postemergence section (flood test species), Rate 500 g/ha, scale of 0 to 10 where 0 is no effect and 10 is complete control
[27] = Rate 62 g/ha, Postemergence (flood test), scale 0 to 10, 0 no effect, 10 complete control
[28] = Rate 125 g/ha, Postemergence section (flood test species), scale 0 to 10, 0 is no effect, 10 is complete control

CC(C)N(C(=O)n1oc(=O)n(C(C)C#N)c1=O)c1ccccc1 (centres unmarked) [Compound 435]
Rape plant response rating [1, 17]: 0
Rape plant response rating [1, 18]: 0
Plant response rating, Rape [1, 19]: 0
Plant response rating, Rape [1, 20]: 0
Rape plant response rating [1, 21]: 0
Rape plant response rating [1, 22]: 0
Rape plant response rating [1, 23]: 0
Rape plant response rating [1, 24]: 0
Rice plant response rating [2, 25]: 0
Rice plant response rating [2, 26]: 0
Rice plant response rating [2, 27]: 0
Rice plant response rating [2, 28]: 0
Crabgrass plant response rating [3, 17]: 7
Crabgrass plant response rating [3, 18]: 8
Plant response rating, Crabgrass [3, 20]: 2
Crabgrass plant response rating [3, 21]: 6
Crabgrass plant response rating [3, 22]: 9
Crabgrass plant response rating [3, 23]: 0
Crabgrass plant response rating [3, 24]: 2
Blackgrass plant response rating [4, 17]: 6
Blackgrass plant response rating [4, 18]: 8
Plant response rating, Blackgrass [4, 19]: 0
Plant response rating, Blackgrass [4, 20]: 0
Blackgrass plant response rating [4, 21]: 0
Blackgrass plant response rating [4, 22]: 2
Blackgrass plant response rating [4, 23]: 0
Blackgrass plant response rating [4, 24]: 0
Bedstraw plant response rating ([5]; Rate 250 g/ha, scale 0 to 10): 0
Bedstraw plant response rating ([5]; Rate 500 g/ha, scale of 0 to 10 where 0 is no effect and 10 is complete control): 0
Bedstraw plant response rating ([5]; Rate 62 g/ha, scale 0 to 10 (0 no effect, 10 complete control)): 0
Bedstraw plant response rating ([5]; Rate 125 g/ha, scale 0 to 10, 0 is no effect, 10 is complete control): 0
Ducksalad plant response rating [6, 25]: 0
Ducksalad plant response rating [6, 26]: 0
Ducksalad plant response rating [6, 27]: 0
Ducksalad plant response rating [6, 28]: 0
B. signalgrass plant response rating ([7]; Postemergence, Rate 250 g/ha, scale 0 to 10, 0 no effect, 10 complete control): 1
B. signalgrass plant response rating [7, 18]: 3
Plant response rating, B. signalgrass [7, 19]: 0
Plant response rating, B. signalgrass [7, 20]: 0
B. signalgrass plant response rating [7, 21]: 0
B. signalgrass plant response rating [7, 22]: 1
B. signalgrass plant response rating [7, 23]: 0
B. signalgrass plant response rating [7, 24]: 0
Wheat plant response rating [8, 17]: 0
Wheat plant response rating [8, 18]: 0
Plant response rating, Wheat [8, 19]: 0
Plant response rating, Wheat [8, 20]: 0
Wheat plant response rating [8, 21]: 0
Wheat plant response rating [8, 22]: 0
Wheat plant response rating [8, 23]: 0
Wheat plant response rating [8, 24]: 0
Sugarbeets plant response rating [9, 17]: 0
Sugarbeets plant response rating [9, 18]: 0
Plant response rating, Sugarbeets [9, 19]: 0
Plant response rating, Sugarbeets [9, 20]: 0
Sugarbeets plant response rating [9, 21]: 0
Sugarbeets plant response rating [9, 22]: 1
Sugarbeets plant response rating [9, 23]: 0
Sugarbeets plant response rating [9, 24]: 0
S. Flatsedge plant response rating [10, 25]: 0
S. Flatsedge plant response rating [10, 26]: 0
S. Flatsedge plant response rating [10, 27]: 0
S. Flatsedge plant response rating [10, 28]: 0
Corn plant response rating [11, 17]: 0
Corn plant response rating [11, 18]: 0
Plant response rating, Corn [11, 19]: 0
Plant response rating, Corn [11, 20]: 0
Corn plant response rating [11, 21]: 0
Corn plant response rating [11, 22]: 0
Corn plant response rating [11, 23]: 0
Corn plant response rating [11, 24]: 0
Giant foxtail plant response rating [12, 17]: 8
Giant foxtail plant response rating [12, 18]: 9
Plant response rating, Giant foxtail [12, 19]: 0
Plant response rating, Giant foxtail [12, 20]: 2
Giant foxtail plant response rating [12, 21]: 3
Giant foxtail plant response rating [12, 22]: 9
Giant foxtail plant response rating [12, 23]: 0
Giant foxtail plant response rating [12, 24]: 3
Wild oats plant response rating [13, 17]: 0
Wild oats plant response rating [13, 18]: 3
Plant response rating, Wild oats [13, 19]: 0
Plant response rating, Wild oats [13, 20]: 0
Wild oats plant response rating [13, 21]: 2
Wild oats plant response rating [13, 22]: 3
Wild oats plant response rating [13, 23]: 0
Wild oats plant response rating [13, 24]: 0
Nutsedge plant response rating [14, 17]: 0
Nutsedge plant response rating [14, 18]: 3
Plant response rating, Nutsedge [14, 19]: 0
Plant response rating, Nutsedge [14, 20]: 0
Nutsedge plant response rating [14, 21]: 0
Nutsedge plant response rating [14, 22]: 0
Nutsedge plant response rating [14, 23]: 0
Nutsedge plant response rating [14, 24]: 0
Velvetleaf plant response rating [15, 17]: 0
Velvetleaf plant response rating [15, 18]: 0
Plant response rating, Velvetleaf [15, 19]: 0
Plant response rating, Velvetleaf [15, 20]: 0
Velvetleaf plant response rating [15, 21]: 1
Velvetleaf plant response rating [15, 22]: 2
Velvetleaf plant response rating [15, 23]: 0
Velvetleaf plant response rating [15, 24]: 0
Barnyardgrass plant response rating [16, 25]: 0
Barnyardgrass plant response rating [16, 26]: 0
Barnyardgrass plant response rating [16, 27]: 0
Barnyardgrass plant response rating [16, 28]: 0
